Assay results published in patent US8993585B2, “Cyclic amine substituted pyrimidinediamines as PKC inhibitors” (Rigel Pharmaceuticals, Inc., priority 2007, dated 2015).

test system: Human primary T cells; assay: IL-2 ELISA, Human Primary T Cell, Anti-CD3+CD28+ (Example 3); format: cell-based; details: Homo sapiens, T-cell, 24 h, anti-CD3+CD28 stimulation
Summary of the method: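 Human primary T cells, 100,000 per well, were pre-incubated with compound in Yssel's medium for 1 h at 37 °C. The counter-assay used 0.5 ng/ml PMA with 0.1 uM ionomycin final.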

IC50 [nM] | Structure (SMILES)
2070 | CN1C(C)(C)CC(Nc2nc(Nc3cnc4c(c3)OC(F)(F)C(=O)N4)ncc2F)CC1(C)C [II-25]
168 | CCCN1C(=O)COc2cc(Nc3ncc(C#N)c(NC4CC(C)(C)N(C)C(C)(C)C4)n3)ccc21 [II-72]
5580 | CN1C(C)(C)CC(N(Cc2cc3c(cc2Br)OCO3)c2nc(Nc3ccc4c(c3)OCCO4)ncc2F)CC1(C)C [II-90]
1800 | CN1C(=O)c2ccc(Nc3ncc(F)c(NC4CC(C)(C)NC(C)(C)C4)n3)cc2C1=O [II-153]
540 | C#Cc1cnc(Nc2ccc3c(c2)OC(C)(C)C(=O)N3CC)nc1NC1CC(C)(C)N(C)C(C)(C)C1 [II-152]
460 | COc1ccc(-c2csc(Nc3ncc(F)c(NC4CC(C)(C)N(C)C(C)(C)C4)n3)n2)cc1F [II-137]
2510 | Cc1ccc(Nc2ncc(F)c(N(Cc3ccc(-c4ccccc4)cc3)C3CC(C)(C)N(C)C(C)(C)C3)n2)cc1C#N [Compound I-318]
263 | CCCN1C(=O)C(C)(C)Oc2cc(Nc3ncc(F)c(NC4CC(C)(C)N(C)C(C)(C)C4)n3)ccc21 [II-48]
2100 | COc1cccc2sc(Nc3ncc(F)c(NC4CC(C)(C)N(C)C(C)(C)C4)n3)nc12 [II-20]
17700 | COc1ccc(Nc2ncc(F)c(NC3CC(C)(C)N(CCC(=O)O)C(C)(C)C3)n2)cc1Cl [Compound I-303]
7670 | CN1C(C)(C)CC(N(Cc2ccc3ccccc3n2)c2nc(Nc3ccc4c(c3)OCCO4)ncc2F)CC1(C)C [II-89]
1750 | CN1C(C)(C)CC(Nc2nc(Nc3ccc(OC(F)(F)F)cc3)ncc2F)CC1(C)C [Compound I-231]
4410 | CCN(CC)C1CCC(Nc2nc(Nc3ccc(N4CCN(C)CC4)c(Cl)c3)ncc2F)CC1 (centres unmarked) [IV-8, N2-[3-Chloro-4-(4-methylpiperazino)]phenyl-N4-(4-diethylamino)cyclohexyl-5-fluoro-2,4-pyrimidinediamine]
19600 | CN1C(C)(C)CC(Nc2nc(N[C@H]3CCc4ccccc43)ncc2F)CC1(C)C [II-83]
8190 | CN1C(C)(C)CC(Nc2nc(Nc3cccc(OC(F)(F)F)c3)ncc2C(F)(F)F)CC1(C)C [Compound I-242]
3460 | COc1cc(Nc2ncc(F)c(N(Cc3ccc(-c4ccccc4C#N)cc3)C3CC(C)(C)N(C)C(C)(C)C3)n2)cc(OC)c1 [Compound I-325]
550 | COc1cc(Nc2ncc(F)c(NC3CC(C)(C)NC(C)(C)C3)n2)cc(OCCN2CCCC2)c1 [Compound I-435]
804 | CN1CCN(c2ccc(Nc3ncc(F)c(N(Cc4ccccc4)C4CC(C)(C)N(C)C(C)(C)C4)n3)cc2C(F)(F)F)CC1 [Compound I-311]
1320 | CN1C(C)(C)CC(Nc2nc(Nc3ccc4c(c3)OCc3nccn3-4)ncc2F)CC1(C)C [II-11]
1690 | Cc1ccc(C)n1-c1cc(Nc2ncc(F)c(NC3CC(C)(C)NC(C)(C)C3)n2)ccc1OCCN1CCOCC1 [Compound I-441]
8910 | CC1(C)CC(Nc2nc(Nc3ccc4c(c3)OCC(C(N)=O)O4)ncc2F)CC(C)(C)N1 (centres unmarked) [II-159]
2480 | COC(=O)CCN1C(C)(C)CC(Nc2nc(Nc3cc(OC)cc(OC)c3)ncc2F)CC1(C)C [Compound I-292]
4110 | CN1C(C)(C)CC(Nc2nc(Nc3nc4cc(Cl)ccc4o3)ncc2F)CC1(C)C [II-12]

same assay, conditions: anti-CD3+CD28 stimulation, 24 hours

IC50 [nM] | Structure (SMILES)
10200 | CN1C(C)(C)CC(Nc2nc(Nc3ccc(O)cc3)ncc2F)CC1(C)C [Compound I-252]
476 | CC(C)N1C(=O)C(C)(C)Oc2cc(Nc3ncc(C#N)c(NC4CC(C)(C)NC(C)(C)C4)n3)ccc21 [II-75]
39 | CN1C(C)(C)CC(Nc2nc(Nc3ccc(N4CCN(S(C)(=O)=O)CC4)c(C(F)(F)F)c3)ncc2F)CC1(C)C [Compound I-48]
101 | CN1C(C)(C)CC(Nc2nc(Nc3ccc4c(c3)OCC(=O)N4CC3CC3)ncc2F)CC1(C)C [II-77]
136 | COC(=O)N1CCN(c2ccc(Nc3ncc(F)c(NC4CC(C)(C)N(C)C(C)(C)C4)n3)cc2C(F)(F)F)CC1 [Compound I-47]
423 | CC1(C)CC(Nc2nc(Nc3ccc(N4CCN(S(C)(=O)=O)CC4)c(C(F)(F)F)c3)ncc2F)CC(C)(C)N1 [Compound I-257]
2700 | COc1ccc(Nc2ncc(F)c(NC3CC(C)(C)N(C)C3(C)C)n2)cc1C(F)(F)F (centres unmarked) [Compound I-283, 5-Fluoro-N2-(4-methoxy-3-trifluoromethyl)phenyl-N4-(1,2,2,5,5-pentamethylpyrrolidin-3-yl)-2,4-pyrimidinediamine]
320 | CN1C(C)(C)CC(Nc2nc(Nc3ccc(N4CCC(F)(F)CC4)c(Cl)c3)ncc2F)CC1(C)C [Compound I-50]
297 | CN1C(C)(C)CC(Nc2nc(Nc3ccc(OCCN4CCOCC4)c(Cl)c3)ncc2F)CC1(C)C [Compound I-368]
4640 | CC(C)OC(=O)COc1ccc(Nc2ncc(F)c(NC3CC(C)(C)N(C)C(C)(C)C3)n2)cc1 [Compound I-135]
992 | CN1C(C)(C)CC(Nc2nc(Nc3cccc(C#N)c3)ncc2[N+](=O)[O-])CC1(C)C [Compound I-72]
2690 | CN1C(C)(C)CC(Nc2nc(Nc3ccc(F)c(-n4cnnn4)c3)ncc2C(N)=O)CC1(C)C [Compound I-468]
635 | Cc1cc(Nc2ncc(F)c(NC3CC(C)(C)N(C)C(C)(C)C3)n2)ccc1-c1cnn(C)c1 [Compound I-151]
490 | Cc1cc(Nc2ncc(F)c(NC3CC(C)(C)N(C)C(C)(C)C3)n2)ccc1Br [Compound I-111]
6550 | COc1ccc(Nc2ncc(F)c(NC3CC(C)(C)N(C)C(C)(C)C3)n2)cc1OCC(=O)NC1CC1 [Compound I-412]
1080 | COC(=O)C=CN1C(C)(C)CC(Nc2nc(Nc3cc(OC)cc(OC)c3)ncc2F)CC1(C)C [Compound I-298]
2380 | COc1ccc(Nc2ncc(F)c(NC3CCN(C)CC3)n2)cc1Cl [III-1, N2-(3-Chloro-4-methoxy)phenyl-5-fluoro-N4-(1-methylpiperidin-4-yl)-2,4-pyrimidinediamine]
2200 | COc1ccc(Nc2ncc(F)c(NC3CC(C)(C)N(C)C(C)(C)C3)n2)cc1OC(C)C [Compound I-360]
5800 | CCOC(=O)c1cnc(Nc2ccc(N3CCN(C)CC3)c(Cl)c2)nc1NC1CC(C)(C)N(C)C(C)(C)C1 [Compound I-89]
632 | COc1ccc(Nc2ncc([N+](=O)[O-])c(NC3CC(C)(C)N(C)C(C)(C)C3)n2)cc1Cl [Compound I-71]
270 | Cc1nnnn1-c1cccc(Nc2ncc(C#N)c(NC3CC(C)(C)N(C)C(C)(C)C3)n2)c1 [Compound I-462]

IC50 [nM] | Structure (SMILES)
1570 | CC(C)OC(=O)Nc1cccc(Nc2ncc(F)c(NC3CC(C)(C)N(C)C(C)(C)C3)n2)c1 [Compound I-139]
460 | CC1(C)CC(Nc2nc(Nc3ccc(F)c(-n4cnnn4)c3)ncc2F)CC(C)(C)N1 [Compound I-467]
8200 | COc1cccc(Nc2ncc(F)c(NC3CCC(C)(C)N(C)C(C)(C)C3)n2)c1 (centres unmarked) [Compound I-269, 5-Fluoro-N2-[3-methoxy]phenyl-N4-(1,2,2,7,7-pentamethylazepan-4-yl)-2,4-pyrimidinediamine]
550 | COc1cc(Nc2ncc(F)c(NC3CC(C)(C)NC(C)(C)C3)n2)cc(OC)c1 [Compound I-371]
914 | CN1C(C)(C)CC(Nc2nc(Nc3ccc(F)c(-c4cccnc4)c3)ncc2F)CC1(C)C [Compound I-180]
1180 | CCN1C(=O)C(F)(F)Oc2cc(Nc3ncc(C#N)c(NC4CC(C)(C)NC(C)(C)C4)n3)cnc21 [II-73]
34500 | COc1cc(C)c(Nc2ncc(F)c(NC3CC(C)(C)NC(C)(C)C3)n2)cc1OC [Compound I-379]
1690 | CN1C(C)(C)CC(Nc2nc(Nc3ccc(-n4cnnn4)cc3)ncc2F)CC1(C)C [Compound I-400]
94 | CN1C(C)(C)CC(Nc2nc(Nc3ccc(N4CCN(S(C)(=O)=O)CC4)c(Cl)c3)ncc2F)CC1(C)C [Compound I-61]
178 | CN1C(C)(C)CC(Nc2nc(Nc3ccc4c(c3)OC(C)(C)C(=O)N4CC3CC3)ncc2F)CC1(C)C [II-76]
910 | CC1(C)CC(Nc2nc(Nc3ccc(OCCN4CCOCC4)c(Cl)c3)ncc2C#N)CC(C)(C)N1 [Compound I-445]
400 | COc1cc(F)cc(Nc2ncc(F)c(NC3CC(C)(C)N(C)C(C)(C)C3)n2)c1 [Compound I-443]
826 | COc1ccc(Nc2ncc(Br)c(NC3CC(C)(C)N(C)C(C)(C)C3)n2)cc1C(F)(F)F [Compound I-272]
811 | CC(C)N1C(=O)C(C)(C)S(=O)(=O)c2cc(Nc3ncc(F)c(NC4CC(C)(C)N(C)C(C)(C)C4)n3)ccc21 [II-67]
3260 | COc1ccc(Nc2ncc(F)c(NC3CCN(CCO)CC3)n2)cc1Cl [III-5, N2-(3-Chloro-4-methoxy)phenyl-5-fluoro-N4-[1-(2-hydroxyethyl)piperidin-4-yl]-2,4-pyrimidinediamine]
206 | Cc1ccc(Nc2ncc(Br)c(NC3CC(C)(C)N(C)C(C)(C)C3)n2)cc1C#N [Compound I-277]
1550 | CNC(=O)COc1cccc(Nc2ncc(F)c(NC3CC(C)(C)N(C)C(C)(C)C3)n2)c1 [Compound I-136]
532 | CN1C(C)(C)CC(Nc2nc(Nc3ccc(C#N)c(Cl)c3)ncc2C(F)(F)F)CC1(C)C [Compound I-33]
335 | Cc1cnc(Nc2ccc(N3CCN(C)CC3)c(C(F)(F)F)c2)nc1NC1CC(C)(C)N(C)C(C)(C)C1 [Compound I-30]
248 | CC(C)Oc1ccc(Nc2ncc(F)c(NC3CC(C)(C)N(C)C(C)(C)C3)n2)cc1Cl [Compound I-346]

Structure (SMILES) | IC50 [nM]
CN1C(C)(C)CC(Nc2nc(Nc3ccc(C(=O)NCc4cccnc4)cc3)ncc2F)CC1(C)C [Compound I-367] | 3700
CN1C(C)(C)CC(Nc2nc(Nc3cnc(N4CCOCC4)c(Cl)c3)ncc2F)CC1(C)C [Compound I-290] | 596
CN1CCN(c2ncc(Nc3ncc(F)c(NC4CC(C)(C)N(C)C(C)(C)C4)n3)cc2Cl)CC1 [Compound I-288] | 374

same assay, conditions: anti-CD3+CD28 stimulation, 24 hours, citrate salt

IC50 [nM] | Structure (SMILES)
118 | COc1ccc(Nc2ncc(F)c(NC3CC(C)(C)N(C)C(C)(C)C3)n2)cc1OC(F)F [Compound I-359]
